The results in this text go back to US20170157012A1, “A Use of Isosorbide Monooleate” (BASF SE, priority 2014, published 2017).

The nature of series [1]: In-vivo deposition on human skin after rinse-off (GC of extract). Here is the method: (§1) For measuring the deposition of isosorbide monooleate on a substrate a formulation containing isosorbide monooleate was applied to this substrate. Then, the treated area was rinsed with a defined amount of water and extracted with an organic solvent in order to determine the amount of isosorbide monooleate that remained on the surface after the rinse cycle. The extract was analyzed by gas chromatography (GC) and the amount of isosorbide monooleate deposited on the surface was calculated. The measurements were carried out as described in the experimental section of WO 2013/007473.
(§2) As substrate the human skin (forearm) of probands (in-vivo deposition) as well as a skin substitute (collagen layer) (in-vitro deposition) was used. The rinse-cycle (dilution with water) imitated the process of having a shower.
(§3) The following formulations were used for the deposition measurements (in-vitro as well as in-vivo).

Series [2] in a line: In-vitro deposition on skin substitute after rinse-off (GC of extract). Conditions: for In-vitro deposition of Isosorbide monooleate on the skin substitute per area: after rinse with water. Here is the method: as §1, §2, §3

As to isosorbide monooleate, the “In-vivo Deposition of isosorbide monooleate on the skin per area” value in series [1] (1 % by weight isosorbide monooleate in the formulation, human forearm skin, after rinse-off) was 0.7 μg/cm^2. Moreover, the “Remaining on the skin after rinse-off (in words)” value in series [1] (formulation with 1% by weight isosorbide monooleate) is recorded as “remained in small amounts on the skin after rinse-off”. The “In-vitro deposition of Isosorbide monooleate on the skin substitute per area” value in series [2] (0.5 % by weight isosorbide monooleate in the formulation) is reported as 3.7 μg/cm^2; in series [2] (1 % by weight isosorbide monooleate in the formulation), 7.3 μg/cm^2; in series [2] (1.5 % by weight isosorbide monooleate in the formulation), 8.6 μg/cm^2; in series [2] (2 % by weight isosorbide monooleate in the formulation), 15.8 μg/cm^2. The “Concentration dependency of deposition on the skin/skin substitute” value in series [2] (formulations with 0.5 to 2 % by weight isosorbide monooleate) is “The higher the amount of isosorbide monooleate in the formulation the higher the deposition rate”.
